Measured values as given in article PMC9401498 (Clinical Cancer Research, 2021).
“Also recorded” adds a separate entry of the source.

Tested on: patients with advanced and/or treatment-refractory solid tumors
Assay: Safety and tolerability: adverse events
Format: in vivo, human
Settings: for Alanine aminotransferase increased (treatment-related AE) / Ammonia increased (treatment-related AE) / Anemia (treatment-related AE) / Aspartate aminotransferase increased (treatment-related AE) / Blood alkaline phosphatase increased (treatment-related AE) / Blood bilirubin increased (treatment-related AE) / Blood creatinine increased (treatment-related AE) / Constipation (treatment-related AE) / Decreased appetite (treatment-related AE) / Diarrhea (treatment-related AE) / Dysgeusia (treatment-related AE) / Dyspepsia (treatment-related AE) / Fatigue (treatment-related AE) / Gastroesophageal reflux disease (treatment-related AE) / Hypomagnesemia (treatment-related AE) / Hyponatremia (treatment-related AE) / Nausea (treatment-related AE) / Neuropathy peripheral (treatment-related AE) / Patients with ≥1 treatment-emergent AE / Patients with ≥1 treatment-related AE / Photophobia (treatment-related AE) / Photopsia (treatment-related AE) / Thrombocytopenia (treatment-related AE) / Vision blurred (treatment-related AE) / Vomiting (treatment-related AE) / Weight decreased (treatment-related AE) / γ-Glutamyltransferase increased (treatment-related AE) / Abdominal distension (treatment-related AE) / Activated partial thromboplastin time prolonged (treatment-related AE): TID-fasted (n = 32)
[1] = across doses and schedules, 120 patients

Q: Which results are given for O=C(Cc1cccc(OC(F)(F)F)c1)Nc1ccc(CCCCc2nnc(NC(=O)Cc3ccccn3)s2)nn1 [telaglenastat, Telaglenastat]?
A: Alanine aminotransferase increased (treatment-related AE) (All grades): 6 (18.8) n (%); Ammonia increased (treatment-related AE) (All grades): 0 n (%); Anemia (treatment-related AE) (All grades): 0 n (%); Aspartate aminotransferase increased (treatment-related AE) (All grades): 6 (18.8) n (%); Blood alkaline phosphatase increased (treatment-related AE) (All grades): 2 (6.3) n (%); Blood bilirubin increased (treatment-related AE) (All grades): 0 n (%); Blood creatinine increased (treatment-related AE) (All grades): 1 (3.1) n (%); Constipation (treatment-related AE) (All grades): 2 (6.3) n (%); Decreased appetite (treatment-related AE) (All grades): 0 n (%); Diarrhea (treatment-related AE) (All grades): 1 (3.1) n (%); Dysgeusia (treatment-related AE) (All grades): 1 (3.1) n (%); Dyspepsia (treatment-related AE) (All grades): 0 n (%); Fatigue (treatment-related AE) (All grades): 7 (21.9) n (%); Gastroesophageal reflux disease (treatment-related AE) (All grades): 0 n (%); Hypomagnesemia (treatment-related AE) (All grades): 0 n (%); Hyponatremia (treatment-related AE) (All grades): 0 n (%); Nausea (treatment-related AE) (All grades): 2 (6.3) n (%); Neuropathy peripheral (treatment-related AE) (All grades): 1 (3.1) n (%); Patients with ≥1 treatment-emergent AE (All grades): 30 (93.8) n (%); Patients with ≥1 treatment-related AE (All grades): 23 (71.9) n (%); Photophobia (treatment-related AE) (All grades): 1 (3.1) n (%); Photopsia (treatment-related AE) (All grades): 1 (3.1) n (%); Thrombocytopenia (treatment-related AE) (All grades): 0 n (%); Vision blurred (treatment-related AE) (All grades): 0 n (%); Vomiting (treatment-related AE) (All grades): 4 (12.5) n (%); Weight decreased (treatment-related AE) (All grades): 0 n (%); γ-Glutamyltransferase increased (treatment-related AE) (All grades): 1 (3.1) n (%); Abdominal distension (treatment-related AE) (Grade 3): 0 n (%); Activated partial thromboplastin time prolonged (treatment-related AE) (Grade 3): 0 n (%); Alanine aminotransferase increased (treatment-related AE) (Grade 3): 5 (15.6) n (%); Ammonia increased (treatment-related AE) (Grade 3): 0 n (%); Anemia (treatment-related AE) (Grade 3): 0 n (%); Aspartate aminotransferase increased (treatment-related AE) (Grade 3): 3 (9.4) n (%); Blood alkaline phosphatase increased (treatment-related AE) (Grade 3): 1 (3.1) n (%); Blood bilirubin increased (treatment-related AE) (Grade 3): 0 n (%); Blood creatinine increased (treatment-related AE) (Grade 3): 1 (3.1) n (%); Constipation (treatment-related AE) (Grade 3): 0 n (%); Decreased appetite (treatment-related AE) (Grade 3): 0 n (%); Diarrhea (treatment-related AE) (Grade 3): 0 n (%); Dysgeusia (treatment-related AE) (Grade 3): 0 n (%); Dyspepsia (treatment-related AE) (Grade 3): 0 n (%); Fatigue (treatment-related AE) (Grade 3): 0 n (%); Gastroesophageal reflux disease (treatment-related AE) (Grade 3): 0 n (%); Hypomagnesemia (treatment-related AE) (Grade 3): 0 n (%); Hyponatremia (treatment-related AE) (Grade 3): 0 n (%); Nausea (treatment-related AE) (Grade 3): 0 n (%); Neuropathy peripheral (treatment-related AE) (Grade 3): 0 n (%); Patients with ≥1 treatment-emergent AE (Grade 3): 9 (28.1) n (%); Patients with ≥1 treatment-related AE (Grade 3): 4 (12.5) n (%); Photophobia (treatment-related AE) (Grade 3): 0 n (%); Photopsia (treatment-related AE) (Grade 3): 0 n (%); Thrombocytopenia (treatment-related AE) (Grade 3): 0 n (%); Vision blurred (treatment-related AE) (Grade 3): 0 n (%); Vomiting (treatment-related AE) (Grade 3): 0 n (%); Weight decreased (treatment-related AE) (Grade 3): 0 n (%); γ-Glutamyltransferase increased (treatment-related AE) (Grade 3): 0 n (%); Abdominal distension (treatment-related AE) (Grade 4): 0 n (%); Activated partial thromboplastin time prolonged (treatment-related AE) (Grade 4): 0 n (%); Alanine aminotransferase increased (treatment-related AE) (Grade 4): 0 n (%); Ammonia increased (treatment-related AE) (Grade 4): 0 n (%); Anemia (treatment-related AE) (Grade 4): 0 n (%); Aspartate aminotransferase increased (treatment-related AE) (Grade 4): 2 (6.3) n (%); Blood alkaline phosphatase increased (treatment-related AE) (Grade 4): 0 n (%); Blood bilirubin increased (treatment-related AE) (Grade 4): 0 n (%); Blood creatinine increased (treatment-related AE) (Grade 4): 0 n (%); Constipation (treatment-related AE) (Grade 4): 0 n (%); Decreased appetite (treatment-related AE) (Grade 4): 0 n (%); Diarrhea (treatment-related AE) (Grade 4): 0 n (%); Dysgeusia (treatment-related AE) (Grade 4): 0 n (%); Dyspepsia (treatment-related AE) (Grade 4): 0 n (%); Fatigue (treatment-related AE) (Grade 4): 0 n (%); Gastroesophageal reflux disease (treatment-related AE) (Grade 4): 0 n (%); Hypomagnesemia (treatment-related AE) (Grade 4): 0 n (%); Hyponatremia (treatment-related AE) (Grade 4): 0 n (%); Nausea (treatment-related AE) (Grade 4): 0 n (%); Neuropathy peripheral (treatment-related AE) (Grade 4): 0 n (%); Patients with ≥1 treatment-emergent AE (Grade 4): 3 (9.4) n (%); Patients with ≥1 treatment-related AE (Grade 4): 3 (9.4) n (%); Photophobia (treatment-related AE) (Grade 4): 0 n (%); Photopsia (treatment-related AE) (Grade 4): 0 n (%); Thrombocytopenia (treatment-related AE) (Grade 4): 0 n (%); Vision blurred (treatment-related AE) (Grade 4): 0 n (%); Vomiting (treatment-related AE) (Grade 4): 0 n (%); Weight decreased (treatment-related AE) (Grade 4): 0 n (%); γ-Glutamyltransferase increased (treatment-related AE) (Grade 4): 1 (3.1) n (%); Incidence of treatment-related grade 3/4 AEs (TID-fasted, 7/32): 22%; Patients with treatment-related AEs of any grade (across doses and schedules, 87/120 patients): 72.5%; ALT increased, treatment-related AE of any grade [1]: 17%; AST increased, treatment-related AE of any grade [1]: 13%; Fatigue, treatment-related AE of any grade [1]: 23%; Nausea, treatment-related AE of any grade [1]: 19%; Photophobia, treatment-related AE of any grade [1]: 11%; Patients who died during the study-reporting period (all due to progressive disease (PD)): Seven; DLTs (dose escalation, BID-fed schedule): No DLTs; Hy's Law criteria (drug-induced liver injury) (either schedule): no patients on either schedule met criteria for the Hy's Law; also recorded: no cases of drug-induced liver injury according to the Hy's law criteria; Patients with treatment-related SAEs (four SAEs: ALT and AST increase (400 mg TID), blood creatinine increase (250 mg TID), grade 2 convulsion (1,000 mg BID)): 3 patients
